≈ marks a conversion by molar mass, not a printed value.
Columns and labels:
[1] = test system: Mycobacterium tuberculosis; test: Antitubercular activity against Mycobacterium tuberculosis H37Rv; format: functional
[2] = Partition coefficient, log P of the compound; format: physicochemical; settings: octanol/water
[3] = test system: Mycobacterium tuberculosis; test: Antitubercular activity against Mycobacterium tuberculosis H37Ra; format: functional

SMILES	MIC [1] [µg/mL]	logP ([2]; read-out: LogP)	MIC [3] [µg/mL]	logP [2]
c1ccc2c(NCCCCCNc3c4c(nc5ccccc35)CCCC4)c3c(nc2c1)CCCC3	12.5 (≈ 26.9 µM)	7.15	25 (≈ 53.8 µM)	–
Clc1ccc(Oc2c3c(nc4ccccc24)CCCC3)cc1	> 12.5	5.81	> 25	–
Clc1ccc(Oc2c3c(nc4ccccc24)CCCC3)c(Cl)c1	> 12.5	6.37	> 25	–
CCCCCCCCCCCCNc1c2c(nc3ccccc13)CCCC2	0.78 (≈ 2.13 µM)	7.79	6.25 (≈ 17 µM)	–
C=CCc1ccc(Oc2c3c(nc4ccccc24)CCCC3)c(OC)c1	> 12.5	6.18	25 (≈ 72.4 µM)	–
CCCCCCCCNc1c2c(nc3ccccc13)CCCC2	3.12 (≈ 10 µM)	6.12	1.56 (≈ 5.02 µM)	–
COc1ccc(Nc2c3c(nc4ccccc24)CCCC3)cc1	> 12.5	5.05	> 25	–
OCCNc1c2c(nc3ccccc13)CCCC2	12.5 (≈ 51.6 µM)	2.69	> 25	–
CCCCCCNc1c2c(nc3ccccc13)CCCC2	6.25 (≈ 22.1 µM)	5.29	6.25 (≈ 22.1 µM)	–
c1ccc(Sc2c3c(nc4ccccc24)CCCC3)cc1	> 12.5	5.82	> 25	–
c1ccc(CNc2c3c(nc4ccccc24)CCCC3)cc1	> 12.5	4.94	25 (≈ 86.7 µM)	–
Fc1ccc(Oc2c3c(nc4ccccc24)CCCC3)cc1	> 12.5	5.41	> 25	–
c1ccc2c(NCCCCCCCNc3c4c(nc5ccccc35)CCCC4)c3c(nc2c1)CCCC3	12.5 (≈ 25.4 µM)	7.99	6.25 (≈ 12.7 µM)	–
Cc1ccc(Oc2c3c(nc4ccccc24)CCCC3)cc1C	> 12.5	6.23	> 25	–
c1ccc2c(NCCCCCCCCCCNc3c4c(nc5ccccc35)CCCC4)c3c(nc2c1)CCCC3	12.5 (≈ 23.4 µM)	–	3.12 (≈ 5.83 µM)	9.24
c1ccc2c(N3CCOCC3)c3c(cc2c1)CCCC3	12.5 (≈ 46.8 µM)	3.6	> 25	–
Clc1cccc(CCNc2c3c(nc4ccccc24)CCCC3)c1	> 12.5	5.78	25 (≈ 74.2 µM)	–
CC[C@@H](CO)NCCN[C@@H](CC)CO [ETHAMBUTOL]	3.25 (≈ 15.9 µM)	–	–	–
NNC(=O)c1ccncc1 [ISONIAZID]	0.65 (≈ 4.74 µM)	–	–	–
CO[C@H]1/C=C/O[C@@]2(C)Oc3c(C)c(O)c4c(O)c(c(/C=N/N5CCN(C)CC5)c(O)c4c3C2=O)NC(=O)/C(C)=C\C=C\[C@H](C)[C@H](O)[C@@H](C)[C@@H](O)[C@@H](C)[C@H](OC(C)=O)[C@@H]1C [RIFAMPIN]	0.75 (≈ 0.911 µM)	–	–	–

Source: ChEMBL document CHEMBL1149509, “Search of antitubercular activities in tetrahydroacridines: synthesis and biological evaluation” (Bioorg Med Chem Lett, 2006)
